Test results taken from US20260124214A1, “HETEROCYCLIC COMPOUNDS FOR USE IN THE TREATMENT OF CANCER” (ARTIOS PHARMA LIMITED, priority 2021, published 2026).
Counter-ions that a name gives are not always drawn.

Molecular target: T1, Human Polθ polymerase domain (aa1820-2590) (Homo sapiens, UniProt O75417)
T1 construct: Human Polθ polymerase domain (aa1820-2590) was expressed in E. Coli; made in house; host or cells: E. coli
T1 sequence (O75417 1820-2590): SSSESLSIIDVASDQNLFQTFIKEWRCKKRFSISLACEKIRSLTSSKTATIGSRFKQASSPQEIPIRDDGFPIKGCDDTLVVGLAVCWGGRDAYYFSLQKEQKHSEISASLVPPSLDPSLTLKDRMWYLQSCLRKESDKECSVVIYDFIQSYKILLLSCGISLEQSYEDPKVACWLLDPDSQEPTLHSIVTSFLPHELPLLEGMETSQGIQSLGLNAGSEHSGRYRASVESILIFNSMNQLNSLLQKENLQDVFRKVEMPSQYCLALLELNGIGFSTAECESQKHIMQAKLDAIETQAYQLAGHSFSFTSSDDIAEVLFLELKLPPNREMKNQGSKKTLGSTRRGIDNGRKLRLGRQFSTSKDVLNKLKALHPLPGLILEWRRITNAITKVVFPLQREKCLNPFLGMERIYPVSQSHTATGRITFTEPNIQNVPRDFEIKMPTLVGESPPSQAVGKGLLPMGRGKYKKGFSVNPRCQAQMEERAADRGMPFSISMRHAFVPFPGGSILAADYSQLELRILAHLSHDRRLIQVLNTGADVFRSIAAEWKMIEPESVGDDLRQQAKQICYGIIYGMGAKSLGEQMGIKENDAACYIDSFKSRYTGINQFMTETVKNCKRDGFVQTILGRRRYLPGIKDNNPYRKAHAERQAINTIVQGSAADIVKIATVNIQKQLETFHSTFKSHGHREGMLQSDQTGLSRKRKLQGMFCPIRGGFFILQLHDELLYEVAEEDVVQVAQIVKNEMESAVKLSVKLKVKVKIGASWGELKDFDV
Experiment: Polθ Polymerase Domain WT KI Assay (PicoGreen)
Assay type: biochemical
Details: 100 nM DNA substrate, 0.156 nM Polθ, initial rates vs inhibitor concentration
Experimental: A PicoGreen assay was used to measure the KI values of reversible compounds that inhibit the activity of Polθ in vitro.
Human Polθ polymerase domain (aa1820-2590) was expressed in E. Coli, purified, aliquoted and stored at −80° C. until required. Polθ substrate was generated from a 1.2:1 mix of DNA II Short to DNA II Long to give a final concentration of […] substrate in annealing buffer (20 mM Tris pH 7.5, 50 mM NaCl). The substrate was heated in 50 mL aliquots to 95° C. in a heating block for 5 min before the heating block switched off, the reaction left to cool to rt and stored at −20° C. until required.
Assay measurements were performed with 1× buffer comprising 25 mM Tris pH 7.5, 12.5 mM NaCl, […], 5% (v/v) glycerol, 0.01% v/v Triton x-100, 0.1 mg/ml BSA, 1 mM DTT. […] 100 nL of 23×1:1.5-fold serial dilutions and a DMSO only control were dispensed using the Tecan dispenser into Greiner 384 well black low volume plates (product code 784076). DMSO concentration was maintained at 1% of the final assay volume by back filling with DMSO.
To stop the reaction, 5 μL of a solution containing 25 mM Tris-HCl PH 7.5 and 20 mM EDTA was added at […] (t=0, 15, 30, 60, 90, 120, 150, 180 mins) using the Tempest's time delay function. The plates were covered during the time course to prevent evaporation. After completing the assay, 5 μL of detection reagent (25 mM Tris-HCl pH 7.5 and 2.5% (v/v) PicoGreen) was dispensed into the wells using a Tempest liquid handler (Formulatrix) and plates subsequently read on the CLARIOstar Plus (BMG Labtech) using the default optical settings for fluorescein and the auto gain/focus settings.
All data analysis was carried out using GraphPad Prism V.8 (GraphPad Software Inc, San Diego, CA). Time course data for each inhibitor concentration were fitted to the linear regression model in GraphPad Prism. Any time points where the control (DMSO only) reaction was no longer linear were excluded from the analysis. The initial rates (slopes) obtained from the linear regression were then plotted against inhibitor concentration and fitted to an inhibitor vs. response variable slope (four parameter) model on GraphPad Prism to determine the KI values.

Cc1cc(C(F)(F)F)cc(N2C(=O)C[C@@H]3CN(CC(O)CN4CCOCC4)c4c(Cl)cccc4N(C)C(=O)[C@H]32)n1 (single isomer, unassigned) [Example 133b]
Ki: 2.46 nM

Cc1cc(C(F)(F)F)cc(N2C(=O)C[C@@H]3CNc4c(F)cccc4N(C)C(=O)[C@H]32)n1 [Example 1, (3aR,11aS)-6-Fluoro-10-methyl-1-(6-methyl-4-(trifluoromethyl)pyridin-2-yl)-1,3a,4,5,10,11a-hexahydro-2H-benzo[b]pyrrolo[2,3-f][1,4]diazocine-2,11(3H)-dione]
Ki: 15.3 nM

Cc1cc(C(F)(F)F)cc(N2C(=O)C[C@@H]3CNc4c(Cl)cccc4N(C)C(=O)[C@H]32)n1 [Example 2, (3aR,11aS)-6-Chloro-10-methyl-1-(6-methyl-4-(trifluoromethyl)pyridin-2-yl)-1,3a,4,5,10,11a-hexahydro-2H-benzo[b]pyrrolo[2,3-f][1,4]diazocine-2,11(3H)-dione]
Ki: 0.847 nM

Cc1cc(C(F)(F)F)cc(N2C(=O)C[C@@H]3CNc4c(C)cccc4N(C)C(=O)[C@H]32)n1 [Example 3, (3aR,11aS)-6,10-Dimethyl-1-(6-methyl-4-(trifluoromethyl)pyridin-2-yl)-1,3a,4,5,10,11a-hexahydro-2H-benzo[b]pyrrolo[2,3-f][1,4]diazocine-2,11(3H)-dione]
Ki: 0.927 nM

C=CCN1C[C@H]2CC(=O)N(c3cc(C(F)(F)F)cc(C)n3)[C@@H]2C(=O)N(C)c2cccc(F)c21 [Example 4, (3aR,11aS)-5-Allyl-6-fluoro-10-methyl-1-(6-methyl-4-(trifluoromethyl)pyridin-2-yl)-1,3a,4,5,10,11a-hexahydro-2H-benzo[b]pyrrolo[2,3-f][1,4]diazocine-2,11(3H)-dione]
Ki: 8.33 nM

C=CCN1C[C@H]2CC(=O)N(c3cc(C(F)(F)F)cc(C)n3)[C@@H]2C(=O)N(C)c2cccc(Cl)c21 [Example 5, (3aR,11aS)-5-Allyl-6-chloro-10-methyl-1-(6-methyl-4-(trifluoromethyl)pyridin-2-yl)-1,3a,4,5,10,11a-hexahydro-2H-benzo[b]pyrrolo[2,3-f][1,4]diazocine-2,11(3H)-dione]
Ki: 1.49 nM

C=CCN1C[C@H]2CC(=O)N(c3cc(C(F)(F)F)cc(C)n3)[C@@H]2C(=O)N(C)c2c(F)c(F)cc(Cl)c21 [Example 6, (3aR,11aS)-5-Allyl-6-chloro-8,9-difluoro-10-methyl-1-(6-methyl-4-(trifluoromethyl)pyridin-2-yl)-1,3a,4,5,10,11a-hexahydro-2H-benzo[b]pyrrolo[2,3-f][1,4]diazocine-2,11(3H)-dione]
Ki: 5.14 nM

Cc1cc(C(F)(F)F)cc(N2C(=O)C[C@@H]3CN(CCN4CCN(C)CC4)c4c(Cl)cccc4N(C)C(=O)[C@H]32)n1 [Example 7, (3aR,11aS)-6-Chloro-10-methyl-1-(6-methyl-4-(trifluoromethyl)pyridin-2-yl)-5-(2-(4-methylpiperazin-1-yl)ethyl)-1,3a,4,5,10,11a-hexahydro-2H-benzo[b]pyrrolo[2,3-f][1,4]diazocine-2,11(3H)-dione]
Ki: 2 nM

Cc1cc(C(F)(F)F)cc(N2C(=O)C[C@@H]3CN(CCN4CCN(C)CC4)c4c(Cl)cc(F)cc4N(C)C(=O)[C@H]32)n1 [Example 8, (3aR,11aS)-6-Chloro-8-fluoro-10-methyl-1-(6-methyl-4-(trifluoromethyl)pyridin-2-yl)-5-(2-(4-methylpiperazin-1-yl)ethyl)-1,3a,4,5,10,11a-hexahydro-2H-benzo[b]pyrrolo[2,3-f][1,4]diazocine-2,11(3H)-dione]
Ki: 4.36 nM

Cc1cc(C(F)(F)F)cc(N2C(=O)C[C@@H]3CN(CCN4CCN[C@H](C)C4)c4c(Cl)cccc4N(C)C(=O)[C@H]32)n1 [Example 9, (3aR,11aS)-6-Chloro-10-methyl-1-(6-methyl-4-(trifluoromethyl)pyridin-2-yl)-5-(2-((R)-3-methylpiperazin-1-yl)ethyl)-1,3a,4,5,10,11a-hexahydro-2H-benzo[b]pyrrolo[2,3-f][1,4]diazocine-2,11(3H)-dione]
Ki: 1.4 nM

Cc1cc(C(F)(F)F)cc(N2C(=O)C[C@@H]3CN(CCN4CCN(C)C[C@@H]4C)c4c(Cl)cccc4N(C)C(=O)[C@H]32)n1 [Example 10, (3aR,11aS)-6-Chloro-5-(2-((S)-2,4-dimethylpiperazin-1-yl)ethyl)-10-methyl-1-(6-methyl-4-(trifluoromethyl)pyridin-2-yl)-1,3a,4,5,10,11a-hexahydro-2H-benzo[b]pyrrolo[2,3-f][1,4]diazocine-2,11(3H)-dione Hydrochloride]
Ki: 2.18 nM

CC(=O)N1CCN(CCN2C[C@H]3CC(=O)N(c4cc(C(F)(F)F)cc(C)n4)[C@@H]3C(=O)N(C)c3cccc(Cl)c32)[C@@H](C)C1 [Example 11, (3aR,11aS)-5-(2-((S)-4-Acetyl-2-methylpiperazin-1-yl)ethyl)-6-chloro-10-methyl-1-(6-methyl-4-(trifluoromethyl)pyridin-2-yl)-1,3a,4,5,10,11a-hexahydro-2H-benzo[b]pyrrolo[2,3-f][1,4]diazocine-2,11(3H)-dione]
Ki: 1.52 nM

Cc1cc(C(F)(F)F)cc(N2C(=O)C[C@@H]3CN(CCN4CCN(C)CC4)c4ccccc4N(C)C(=O)[C@H]32)n1 [Example 13, (3aR,11aS)-10-Methyl-1-(6-methyl-4-(trifluoromethyl)pyridin-2-yl)-5-(2-(4-methylpiperazin-1-yl)ethyl)-1,3a,4,5,10,11a-hexahydro-2H-benzo[b]pyrrolo[2,3-f][1,4]diazocine-2,11(3H)-dione dihydrochloride]
Ki: 51.1 nM

Cc1cc(C(F)(F)F)cc(N2C(=O)C[C@@H]3CN(CCN4CC5(CCO5)C4)c4c(C)cccc4N(C)C(=O)[C@H]32)n1 [Example 14, (3aR,11aS)-5-(2-(1-Oxa-6-azaspiro[3.3]heptan-6-yl)ethyl)-6,10-dimethyl-1-(6-methyl-4-(trifluoromethyl)pyridin-2-yl)-1,3a,4,5,10,11a-hexahydro-2H-benzo[b]pyrrolo[2,3-f][1,4]diazocine-2,11(3H)-dione]
Ki: 0.757 nM

Cc1cc(C(F)(F)F)cc(N2C(=O)C[C@@H]3CN(CCN4CCN(C)[C@H](CO)C4)c4c(C)cccc4N(C)C(=O)[C@H]32)n1 [Example 15, (3aR,11aS)-5-(2-((S)-3-(Hydroxymethyl)-4-methylpiperazin-1-yl)ethyl)-6,10-dimethyl-1-(6-methyl-4-(trifluoromethyl)pyridin-2-yl)-1,3a,4,5,10,11a-hexahydro-2H-benzo[b]pyrrolo[2,3-f][1,4]diazocine-2,11(3H)-dione]
Ki: 1.22 nM

Cc1cc(C(F)(F)F)cc(N2C(=O)C[C@@H]3CN(CCN4CCNCC4)c4c(C)cccc4N(C)C(=O)[C@H]32)n1 [Example 16, (3aR,11aS)-6,10-Dimethyl-1-(6-methyl-4-(trifluoromethyl)pyridin-2-yl)-5-(2-(piperazin-1-yl)ethyl)-1,3a,4,5,10,11a-hexahydro-2H-benzo[b]pyrrolo[2,3-f][1,4]diazocine-2,11(3H)-dione]
Ki: 1.2 nM

CNCCNCCN1C[C@H]2CC(=O)N(c3cc(C(F)(F)F)cc(C)n3)[C@@H]2C(=O)N(C)c2cccc(C)c21 [Example 17, (3aR,11aS)-6,10-Dimethyl-1-(6-methyl-4-(trifluoromethyl)pyridin-2-yl)-5-(2-((2-(methylamino)ethyl)amino)ethyl)-1,3a,4,5,10,11a-hexahydro-2H-benzo[b]pyrrolo[2,3-f][1,4]diazocine-2,11(3H)-dione]
Ki: 2.43 nM
